Assay results reported in article PMC9601806, “Calcium Binding Mechanism of Soybean Peptide with Histidine Alteration by Molecular Docking Analysis and Spectroscopic Methods” (Foods, 2022).
Residues, ends and D or L forms follow the SMILES beside them.

Tests used:
[1] = Simulated gastrointestinal digestion and Caco-2 absorption, LC-MS/MS identification; format: in vitro ADME; conditions: pepsin pH 2, 37 °C, 90 min, then trypsin and bile salts pH 7.5, Caco-2 absorption 0.1 mg/mL, 2 h
Procedure: The simulation of gastrointestinal digestion was carried out following the method described before with some modifications. The gastric set was reproduced by the suspension of porcine pepsin (40 mg) into 1 mL 0.1N HCl. The intestinal stage was stimulated by adding bile salts (40 mg) and trypsin (10 mg) into 5 mL of 0.1 mol/L NaHCO3. Gastric digestion was performed by incubating the CBP–calcium complex or CaCl2 (prepared with equal Ca^2+ concentration, pH = 2) at a pepsin/substrate ratio of 1:100 (w/w) in a water bath shaker (37 °C, 90 min). […], the […] at 1:25 (w/w) of substrates was added, following by adjusting the pH to 7.5. After that, samples were removed after deactivating trypsin by thermal denaturation for 5 min. Then, the obtained samples were lyophilized and stored at −20 °C for the sake of subsequent studies.
The human intestinal Caco-2 cell line has been extensively used as an intestinal barrier model. These cells were cultured in high-glucose Dulbecco’s Eagle’s medium (DMEM), which contained 10% fetal bovine serum (FBS), 100 μg mL^−1 streptomycin, and 100 U mL^−1 penicillin, and were incubated at 37 °C in a humidified 5% CO2 incubator. Transepithelial transport through the Caco-2 single cell layer was performed in accordance with Wang et al.’s method. […]

[2] = cited from earlier work
Procedure: To clarify the calcium-binding capacity of CBP-H, Nanjing Peptide Biotechnology Corporation. Ltd. (Nanjing, China) synthesized the peptide CBP-H using a solid-phase procedure. High performance liquid chromatography (HPLC) analysis was performed to determine the purity (98%) of CBP-H (Figure S1A), and ESI mass spectrometry was used to confirm the peptide structure. […] In addition, the CBP-H–Ca complex was prepared, followed by ICP-AES to detect the calcium-binding capacity. […] Spectroscopic methods were used to analyze the binding mode and binding sites including ITC, UV, FTIR, and XRD. Isothermal titration calorimetry was always used to measure reversible reactions between bio-molecules. This methodology provided the affinity constant, stoichiometry, enthalpy, and entropy of the biomolecular interactions.

stability after simulated gastrointestinal digestion [1] | Compound | also measured
partially stable | CC[C@H](C)[C@H](NC(=O)[C@H](CCC(N)=O)NC(=O)[C@H](CCC(=O)O)NC(=O)[C@H](CC(=O)O)NC(=O)[C@H](CCC(=O)O)NC(=O)[C@@H](N)CC(=O)O)C(=O)N1CCC[C@H]1C(=O)N[C@@H](CO)C(=O)N[C@@H](Cc1c[nH]cn1)C(=O)N1CCC[C@H]1C(=O)N1CCC[C@H]1C(=O)N[C@@H](CCCNC(=N)N)C(=O)O [CBP, Asp-Glu-Asp-Glu-Gln-IIe-Pro-Ser-His-Pro-Pro-Arg] (H-DEDEQIPSHPPR-OH) | 
partially stable | CC[C@H](C)[C@H](NC(=O)[C@H](CCC(N)=O)NC(=O)[C@H](CCC(=O)O)NC(=O)[C@H](CC(=O)O)NC(=O)[C@H](CCC(=O)O)NC(=O)[C@@H](N)CC(=O)O)C(=O)N1CCC[C@H]1C(=O)N[C@@H](CO)C(=O)N[C@@H](CC(C)C)C(=O)N1CCC[C@H]1C(=O)N1CCC[C@H]1C(=O)N[C@@H](CCCNC(=N)N)C(=O)O [CBP-H, Asp-Glu-Asp-Glu-Gln-IIe-Pro-Ser-Leu-Pro-Pro-Arg] (H-DEDEQIPSLPPR-OH) | 
 | GPAGPHGPVG [tilapia bone collagen peptide, literature comparison] | calcium-binding capacity ([2]; tilapia bone collagen peptide): 18.80 ± 0.49 mg/g
 | Thr-Cys-His | calcium binding capacity ([2]; peptide from shrimp protein hydrolysates): 2.7 mmol/g
